Assay results: patent US20200165653A1, “METHOD OF MEASURING FLUID SECRETION FUNCTION OF EPITHELIAL CELLS” (NATIONAL UNIVERSITY CORPORATION TOKYO MEDICAL AND DENTAL …, priority 2017, published 2020)
Structures can show the parent of a compound that is named as a salt. No end group written: not given here.

Assays:
[1] = test system: human jejunum-derived organoids; experiment: Organoid swelling response quantified by cross-sectional area with 3D-scanning system; format: cell-based; conditions: for dose-response curve profile of swelling: human jejunal organoid, FIG. 12
Method: The organoid cross-sectional area was measured using a 3D-Scanning System (Cell3 […], Screen Holdings, Kyoto, Japan) as the image analysis device 100. […] After the passage of a preliminary culture process of leaving for 24 hours after seeding, scanning was then performed both before and 30 min after the addition of the reagent subject to analysis. An image was acquired during scanning in auto-focus (AF) mode. The analysis parameters summarized in following Table 1 were set and the cross-sectional area of recognized organoids measured automatically. Note that changes over time due to the addition of a reagent subjected to analysis can be observed in the following manner. Namely, an object is imaged at time (T0) prior to adding a reagent subjected to analysis (T0 imaging process). Then the same object is imaged at time (TN) when a prescribed time (30 minutes, for example) has elapsed since adding the reagent subjected to analysis. Determination is then made as to whether or not the object is an object subjected to analysis. By performing the selection process and the determination process, the change over time observations are only made for objects determined be subjected to analysis thereby at both time T0 and time TN. Then in an area change calculation process, an area (A0) at time T0 and an area (AN) at time TN are calculated for the objects subject to analysis. The change over time (%) based thereon can be found, for example, using the following formula. (AN-A0)/A0×100 Using forskolin-induced swelling as a positive control, testing was next performed so see if such a swelling response could be quantified using the 3D-scanning system described. To optimize the quantification efficiency and accuracy, organoids were subjected to analysis after performing the preliminary culture process at one day after the last passage. This was done since the organoids generally held their cystic shape at this time point. The thresholds to recognize cross-section borders of each organoid were then optimized as set out in Table 1. Thus utilizing the fluid secretion function measurement method of the present embodiment enables drug response screening to be performed at the same time as determining the dose-dependency curves of a limited number of test reagents. Whether or not the present system could determine the dose-dependency curves of forskolin was thereby tested. The dose-dependency curve for forskolin-induced swelling when using a human jejunum-derived organoids was thereby found to be expressed by a standard sigmoid shaped curve, with the log EC50 value thereof calculated as -7.58 (FIG. 10).

[2] = test system: human intestinal organoids; experiment: Organoid swelling observed by phase contrast / time-lapse imaging; format: cell-based; conditions: for increase in cross-sectional area of organoids: 60 min after induction, same mediator concentrations as FIG. 11; for swelling response induced by endogenous mediator: PGE2 10^−8 M, VIP 10^−7 M, ACh 10^−3 M, histamine 10^−3 M, bradykinin 10^−5 M, serotonin 10^−3 M, up to 60 min after induction
Method: The phase contrast images illustrated are prior to swelling induction and 60 minutes after swelling induction. Scale-bar: 100 μm. Induction was by the addition to a culture medium of: PGE2 (10^−8 M, (A)), VIP (10^−7 M, (B)), ACh (10^−3 M, (C)), histamine (10^−3 M, (D)), bradykinin (10^−5 M, (E)), and serotonin (10^−3 M, (F)).
Examination of Endogenous Mediator Candidates for Anion/Fluid Secretion Next, the fluid secretion function measurement method of the present embodiment was employed to examine the direct effect of various endogenous mediators that might possibly induce anion/fluid secretion from intestinal epithelial cells by testing six types of endogenous mediators to determine if they had the capability to induce a swelling response in organoids equivalent to that of forskolin-induced swelling.

| EC50 ([1]; human small intestinal (jejunum-derived) organoids, sigmoid dose-dependency curve, average of at least three independent tests, value is log EC50, read-out: log EC50 of forskolin-induced swelling (converted)) | Compound | dose-response curve profile of swelling [1] | increase in cross-sectional area of organoids [2] | swelling response induced by endogenous mediator [2] | time of continuous linear swelling response after stimulation ([1]; forskolin 10^−5 M, observed up to 240 min, area change calculation) | time for which swelling continued ([2]; small intestinal organoids, forskolin 10^−5 M) |
| --- | --- | --- | --- | --- | --- | --- |
| – | CCCCC[C@H](O)/C=C/[C@H]1[C@H](O)CC(=O)[C@@H]1C/C=C\CCCC(=O)O [PGE2, prostaglandin E2] | clear sigmoid-shaped response curve | large overall increase | rapid and continuous response | – | – |
| 26.3 nM | C=C[C@@]1(C)CC(=O)[C@]2(O)[C@@]3(C)[C@@H](O)CCC(C)(C)[C@@H]3[C@H](O)[C@H](OC(C)=O)[C@@]2(C)O1 [forskolin] | – | – | – | up to 30 min | at least 60 min |
| – | NCCc1c[nH]cn1 [histamine] | markedly lower response profile | smaller than for PGE2 or VIP | slow and limited response | – | – |
| – | NCCc1c[nH]c2ccc(O)cc12 [serotonin, serotonin hydrochloride] | – | – | did not exhibit a clear effect | – | – |
| – | vasoactive intestinal polypeptide (HSDAVFTDNYTRLRKQMAVKKYLNSILN; ends and bridges not checked; UniProt P01282 125-152, looked up) [VIP, endogenous mediator acting through Gs-coupled receptors] | clear sigmoid-shaped response curve | large overall increase | rapid and continuous response | – | – |
